Measurements reported in the supplement of paper PMC10307832.

Assays:
Assay in all cases: relative viability (nuclei count vs DMSO), 5 days (fraction); higher = more cells survive
[1] = compound: COc1cc2nc(N3CCCN(C)CC3)nc(NC3CCN(Cc4ccccc4)CC3)c2cc1OC + Cc1cc(Nc2cc(N3CCN(C)CC3)nc(Sc3ccc(NC(=O)C4CC4)cc3)n2)n[nH]1 [Tozasertib] (partner 0.1 µM)
How it was run: (§1)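 Lung cancer cell lines in 1536-well plates got either a single drug or a fixed anchor-drug dose together with five library-drug doses (not always all listed) in √10 steps, by pin tool, on the day after seeding. Nuclei were counted after 5 days, and relative viability is the treated-to-vehicle ratio of nuclei counts. Values are medians of duplicate plates.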

AZD6482 + Pemetrexed = compound: Cc1cc([C@@H](C)Nc2ccccc2C(=O)O)c2nc(N3CCOCC3)cc(=O)n2c1 [AZD6482] + Nc1nc2[nH]cc(CCc3ccc(C(=O)N[C@@H](CCC(=O)O)C(=O)O)cc3)c2c(=O)[nH]1 [Pemetrexed] (partner 0.2 µM)
How it was run: as §1

AZD6482 + Crizotinib = compound: Cc1cc([C@@H](C)Nc2ccccc2C(=O)O)c2nc(N3CCOCC3)cc(=O)n2c1 [AZD6482] + C[C@@H](Oc1cc(-c2cnn(C3CCNCC3)c2)cnc1N)c1c(Cl)ccc(F)c1Cl [Crizotinib] (partner 1 µM)
How it was run: as §1

AZD6482 + Navitoclax = compound: Cc1cc([C@@H](C)Nc2ccccc2C(=O)O)c2nc(N3CCOCC3)cc(=O)n2c1 [AZD6482] + CC1(C)CCC(c2ccc(Cl)cc2)=C(CN2CCN(c3ccc(C(=O)NS(=O)(=O)c4ccc(N[C@H](CCN5CCOCC5)CSc5ccccc5)c(S(=O)(=O)C(F)(F)F)c4)cc3)CC2)C1 [Navitoclax] (partner 0.5 µM)
How it was run: as §1

Row | Cell Line | relative viability ([1]; first compound 0.2 µM) | relative viability ([1]; first compound 0.6325 µM) | relative viability ([1]; first compound 2 µM) | relative viability ([1]; first compound 6.325 µM) | relative viability (AZD6482 + Pemetrexed; first compound 0.08 µM) | relative viability (AZD6482 + Pemetrexed; first compound 0.253 µM) | relative viability (AZD6482 + Pemetrexed; first compound 0.8 µM) | relative viability (AZD6482 + Pemetrexed; first compound 2.53 µM) | relative viability (AZD6482 + Pemetrexed; first compound 8 µM) | relative viability (AZD6482 + Crizotinib; first compound 0.08 µM) | relative viability (AZD6482 + Crizotinib; first compound 0.253 µM) | relative viability (AZD6482 + Crizotinib; first compound 0.8 µM) | relative viability (AZD6482 + Crizotinib; first compound 2.53 µM) | relative viability (AZD6482 + Crizotinib; first compound 8 µM) | relative viability (AZD6482 + Navitoclax; first compound 0.08 µM) | relative viability (AZD6482 + Navitoclax; first compound 0.253 µM) | relative viability (AZD6482 + Navitoclax; first compound 0.8 µM) | relative viability (AZD6482 + Navitoclax; first compound 2.53 µM) | relative viability (AZD6482 + Navitoclax; first compound 8 µM)
1 | COR-L23 | 0.24 | 0.195 | 0.319 | 0.457 | 0.198 | 0.205 | 0.197 | 0.182 | 0.204 | 0.467 | 0.733 | 0.749 | 0.489 | 0.478 | 0.711 | 1.02 | 1.23 | 0.756 | 0.857
2 | ABC-1 | 0.197 | 0.211 | 0.201 | 0.297 | – | – | – | – | – | 0.853 | 0.969 | 1.03 | 0.899 | 0.801 | – | – | – | – | –
3 | NCI-H522 | 0.573 | 0.671 | 0.547 | 0.606 | 0.932 | 0.933 | 1.11 | 0.87 | 0.923 | – | – | – | – | – | – | – | – | – | –
4 | NCI-H838 | 0.28 | 0.27 | 0.286 | 0.246 | 0.287 | 0.264 | 0.25 | 0.226 | 0.232 | 0.593 | 0.824 | 0.689 | 0.48 | 0.583 | 0.984 | 1.08 | 1.05 | 0.622 | 0.623
5 | SW 900 | 0.509 | 0.539 | 0.585 | 0.548 | 0.479 | 0.476 | 0.501 | 0.358 | 0.384 | – | – | – | – | – | – | – | – | – | –
6 | A549 | – | – | – | – | – | – | – | – | – | 0.73 | 0.722 | 0.754 | 0.405 | 0.431 | 1.07 | 1.25 | 1.06 | 0.607 | 0.961
7 | A-427 | 0.188 | 0.221 | 0.238 | 0.279 | 0.92 | 0.967 | 0.963 | 0.686 | 0.995 | 0.747 | 0.858 | 0.788 | 0.732 | 0.962 | 0.861 | 0.903 | 0.916 | 0.757 | 0.947
8 | NCI-H1792 | – | – | – | – | 0.63 | 0.632 | 0.641 | 0.303 | 0.417 | 0.909 | 0.828 | 0.983 | 0.717 | 0.444 | 0.508 | 0.511 | 0.566 | 0.341 | 0.463
9 | LCLC-97TM1 | 0.185 | 0.423 | 0.311 | 0.256 | 0.15 | 0.166 | 0.164 | – | 0.162 | 0.479 | 0.327 | 0.298 | 0.294 | 0.234 | 0.59 | 0.257 | 0.38 | 0.211 | 0.211
10 | NCI-H1703 | – | – | – | – | – | – | – | – | – | 0.583 | 0.505 | 0.396 | 0.245 | 0.343 | 0.902 | 0.865 | 0.822 | 0.338 | 0.422
11 | LCLC-103H | 0.396 | 0.494 | 0.462 | 0.453 | 0.491 | 0.506 | 0.49 | 0.462 | 0.456 | 0.909 | 0.994 | 0.911 | 0.847 | 0.699 | – | – | – | – | –
12 | PC-3 [JPC-3] | 0.932 | 0.915 | 0.938 | 0.88 | 1.07 | 1.05 | 1.04 | 0.634 | 0.533 | 0.926 | 0.988 | 0.952 | 0.862 | 1.02 | 0.727 | 0.665 | 0.851 | 0.756 | 0.679
13 | BEN | 0.532 | 0.47 | 0.576 | 0.525 | 0.766 | 0.589 | 0.829 | 0.512 | 0.703 | 0.876 | 0.769 | 0.913 | 0.655 | 0.827 | 0.058 | 0.0744 | 0.0638 | 0.0645 | 0.178
14 | Calu-6 | – | – | – | – | – | – | – | – | – | 0.701 | 0.741 | 0.796 | 0.639 | 0.782 | 0.662 | 0.699 | 0.754 | 0.57 | 0.602
15 | NCI-H358 | 0.108 | 0.111 | 0.123 | 0.126 | 0.16 | 0.174 | 0.164 | 0.154 | 0.145 | 0.514 | 0.592 | 0.566 | 0.417 | 0.383 | – | – | – | – | –
16 | NCI-H1648 | 0.491 | 0.527 | 0.508 | 0.538 | 0.892 | 0.625 | 0.816 | – | 0.671 | – | – | – | – | – | – | – | – | – | –
17 | EBC-1 | – | – | – | – | – | – | – | – | – | 0.19 | 0.154 | 0.212 | 0.216 | 0.2 | 0.273 | 0.318 | 0.322 | 0.191 | 0.241
18 | NCI-H1299 | – | – | – | – | – | – | – | – | – | 0.956 | 0.946 | 1.04 | 0.942 | 0.989 | 0.982 | 1.04 | 1.1 | 0.917 | 1.04
19 | NCI-H2342 | 0.503 | 0.659 | 0.57 | 0.511 | 0.745 | 0.681 | 0.726 | 0.609 | 0.567 | – | – | – | – | – | – | – | – | – | –
20 | IA-LM | – | – | – | – | – | – | – | – | – | 0.968 | 1.06 | 1.01 | – | 1.08 | 0.859 | 0.979 | 0.977 | 0.618 | 0.744
21 | NCI-H727 | 0.655 | 0.689 | 0.828 | 0.584 | – | – | – | – | – | 0.684 | 0.971 | 0.864 | – | 0.824 | 0.469 | 0.455 | 0.421 | – | 0.235
22 | NCI-H650 | 0.773 | 0.714 | 0.793 | 0.709 | 1.01 | 0.859 | 0.874 | 0.568 | 0.441 | 0.635 | – | 0.786 | 0.442 | 0.47 | – | – | – | – | –
23 | NCI-H661 | 0.377 | 0.342 | 0.344 | 0.363 | 0.94 | 1.01 | 0.974 | 0.74 | 0.803 | – | 1.03 | 1.02 | – | 0.971 | – | – | – | – | –
24 | NCI-H1793 | 0.338 | 0.386 | 0.359 | 0.322 | 0.509 | 0.545 | 0.818 | 0.416 | 0.383 | – | – | – | – | – | 0.29 | 0.23 | 0.251 | – | 0.312
